How the values were obtained:
[1] = system: glucose uptake in H1299 human lung cancer cells; assay: Glucose uptake assay; assay type: cell-based; conditions: 30 μM, 15 min
[2] = system: Na^+/K^+-ATPase (adenosine 5′-triphosphatase from porcine cerebral cortex); assay: Na+/K+-ATPase activity assay; assay type: biochemical; conditions: 7: at concentrations less than 100 μM
[3] = system: ipsilateral kidney; conditions: 12–27 kg female dogs, renal-artery infusion, 0.05–0.08 mg/kg; cited from earlier work
[4] = system: small panel of human cancer cell lines; conditions: read-out: IC50, cytotoxicity against a small panel of human cancer cell lines; cited from earlier work

C[C@H]1O[C@@H](O[C@H]2[C@@H](O)C[C@H](O[C@H]3[C@@H](O)C[C@H](O[C@H]4CC[C@@]5(C)[C@H](CC[C@@H]6[C@@H]5C[C@@H](O)[C@]5(C)[C@@H](C7=CC(=O)OC7)CC[C@]65O)C4)O[C@@H]3C)O[C@@H]2C)C[C@H](O)[C@@H]1O [compound 1, (+)-Digoxin]
inhibition of glucose uptake / glucose transport (in words) [1]: did not inhibit glucose uptake
inhibition of glucose uptake / glucose transport (in words) ([1]; listed as (+)-digoxin): did not inhibit glucose transport
inhibition of Na+/K+-ATPase activity (in words) [2]: inhibited Na^+/K^+-ATPase activity in a concentration-dependent manner
excretion of Ca2+, Mg2+, and PO4 3- by the ipsilateral kidney (in words) [3]: enhanced
maximal transport of glucose (in words) [3]: no change in the maximal transport of glucose
IC50 [4]: 40 to 200 nM

— PMC7243443 (Journal of natural products, 2020)
